Test results as given in patent US20250161281A1, “EMOPAMIL-BINDING PROTEIN INHIBITORS AND USES THEREOF” (BIOGEN MA INC., priority 2022, published 2025).

The compounds below were run against T1, EBP (Homo sapiens, UniProt Q15125) (assay: EBP Functional Assay (EBP immunoaffinity LC-MS assay)). Conditions: HEK293T cells as source of EBP enzyme; 30 min with inhibitor, then zymosterol-d5, 37° C. for 4 h; percent conversion by LC-APCI MRM MS.
T1 construct: HEK293T cells were utilized as the source of EBP enzyme; endogenous in cells; host or cells: HEK293T
T1 sequence (Q15125 whole entry): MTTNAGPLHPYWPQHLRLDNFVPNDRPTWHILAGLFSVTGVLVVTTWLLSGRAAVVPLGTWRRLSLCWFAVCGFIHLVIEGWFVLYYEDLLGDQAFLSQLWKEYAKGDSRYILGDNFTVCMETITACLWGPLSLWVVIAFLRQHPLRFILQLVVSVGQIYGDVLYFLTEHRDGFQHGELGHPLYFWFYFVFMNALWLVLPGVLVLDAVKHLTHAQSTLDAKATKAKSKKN
Assay type: biochemical
Protocol: The EBP immunoaffinity (IA) LC-MS assay measures the potency of small molecule inhibitors of EBP by quantifying their concentration-dependent changes in the enzyme's substrate and product using liquid chromatography atmospheric pressure chemical ionization multiple reaction monitoring mass spectrometry (LC-APCI MRM MS). HEK293T cells were utilized as the source of EBP enzyme. The enzyme was incubated with the small molecule inhibitors at variable concentrations for 30 min. Deuterated form of EBP substrate, zymosterol-d5 (Avanti Polar Lipids, Cat #700068P-1 mg), was then added and the plate was incubated at 37° C. for 4 h. Finally, the sterol isomers were extracted and injected to LC-APCI MRM MS. MRM transition used for the quantification for both zymosterol and dihydrolathosterol (substrate and product of EBP enzymatic reaction, respectively) is 372.3-203.2, CE 30 and DP 80 in positive ion mode. Percent conversion of the zymosterol-d5 to dehydrolathosterol-d5 was used to derive IC50 curves. Tasin-1 (1′-[(4-Methoxyphenyl)sulfonyl]-4-methyl-1,4′-bipiperidine, CAS 792927-06-1) was used as the reference small molecule inhibitor. Percent conversion versus the compound concentration data were fit to the following 4-parameter logistic model to generate IC50 curves: […]

IC50 [nM]	Structure (SMILES)
50 to 150	Cc1cc(C)c(S(=O)(=O)N2[C@@H]3CC[C@H]2C[C@H](CN2CCOCC2)C3)cn1 [Example 39, 4-(((1R,3s,5S)-8-((4,6-Dimethylpyridin-3-yl)sulfonyl)-8-azabicyclo[3.2.1]octan-3-yl)methyl)morpholine]
< 50	CC1CCN([C@@H]2C[C@H]3CC[C@@H](C2)N3S(=O)(=O)c2cn3c(n2)CCCC3C)CC1 (stereo partly drawn) [Example 11, 5-Methyl-2-(((1R,3s,5S)-3-(4-methylpiperidin-1-yl)-8-azabicyclo[3.2.1]octan-8-yl)sulfonyl)-5,6,7,8-tetrahydroimidazo[1,2-a]pyridine]
< 50	Cc1nc(C(F)(F)F)ccc1S(=O)(=O)N1[C@@H]2CC[C@H]1C[C@H](NCC1CCOCC1)C2 (single isomer, unassigned) [Example 24]
< 50	CC1CCN([C@@H]2C[C@H]3CC[C@@H](C2)N3S(=O)(=O)c2cnc(C3CCOCC3)o2)CC1 [Example 6, 5-(((1R,3s,5S)-3-(4-Methylpiperidin-1-yl)-8-azabicyclo[3.2.1]octan-8-yl)sulfonyl)-2-(tetrahydro-2H-pyran-4-yl)oxazole]
< 50	COc1nc(C)ccc1S(=O)(=O)N1[C@@H]2CC[C@H]1C[C@H](N1CCC(C)CC1)C2 [Example 3, (1R,3s,5S)-8-((2-Methoxy-6-methylpyridin-3-yl)sulfonyl)-3-(4-methylpiperidin-1-yl)-8-azabicyclo[3.2.1]octane]
50 to 150	O=S(=O)(c1ccc(OC(F)F)cc1)N1C2CCC1CC(N1CC3CC(C3)C1)C2 (stereo not drawn) [Example 57, 3-(8-((4-(Difluoromethoxy)phenyl)sulfonyl)-8-azabicyclo[3.2.1]octan-3-yl)-3-azabicyclo[3.1.1]heptane]
50 to 150	CC1(O)CCN(C2CC3CCC(C2)N3S(=O)(=O)c2ccc(OC(F)F)cc2)C1 (stereo not drawn) [Example 49, 1-(8-((4-(Difluoromethoxy)phenyl)sulfonyl)-8-azabicyclo[3.2.1]octan-3-yl)-3-methylpyrrolidin-3-ol]
< 50	Cc1nc(C(F)(F)F)ccc1S(=O)(=O)N1[C@@H]2CC[C@H]1C[C@@H](NCC1CCOCC1)C2 (single isomer, unassigned) [Example 25]
50 to 150	O=S(=O)(c1ccc(OC(F)F)cc1)N1C2CCC1CC(N1C3CCCC1CC3)C2 (stereo not drawn) [Example 53, 8-((4-(Difluoromethoxy)phenyl)sulfonyl)-8,8′-diaza-3,8′-bi(bicyclo[3.2.1]octane)]
< 50	Cc1nc(C(F)(F)F)ccc1S(=O)(=O)N1[C@@H]2CC[C@H]1C[C@H](NCC1(C)COC1)C2 (single isomer, unassigned) [Example 26]
50 to 150	CC(O)CCN[C@H]1C[C@H]2CC[C@@H](C1)N2S(=O)(=O)c1ccc(OC(F)F)cc1 (mixture of isomers) [Example 59, rac-4-(((1R,3r,5S)-8-((4-(difluoromethoxy)phenyl)sulfonyl)-8-azabicyclo[3.2.1]octan-3-yl)amino)butan-2-ol]
< 50	O=S(=O)(c1ccc(OC(F)F)cc1)N1[C@@H]2CC[C@H]1C[C@H](NCC1COC1)C2 [Example 31, (1R,3s,5S)-8-((4-(Difluoromethoxy)phenyl)sulfonyl)-N-(oxetan-3-ylmethyl)-8-azabicyclo[3.2.1]octan-3-amine]
